Publication PMC8161026, “Synthesis and Anticancer Activity Evaluation of 5-[2-Chloro-3-(4-nitrophenyl)-2-propenylidene]-4-thiazolidinones” (Molecules, 2021)

Key:
60 tumor cell lines = assay: NCI60 full panel MG_MID
Procedure: (§1) At the first stage of biological activity study, the antitumor activity screening of the selected compounds 2b, 2c, 2f, 2h, and 2j was performed according to the NCI DTP (USA) standard protocol at the concentrations ranging from 10^−4 to 10^−8 M toward 60 tumor cell lines. The percentage of growth was evaluated spectrophotometrically versus controls not treated with test agents after 48 h exposure and using SRB protein assay to estimate cell viability or growth. Dose–response parameters were calculated for each cell line: GI50—molar concentration of the compound that inhibits 50% net cell growth; TGI—molar concentration of the compound leading to the total inhibition; and LC50—molar concentration of the compound leading to 50% net cell death. Furthermore, mean graph midpoints (MG_MID) were calculated for each of the parameters, giving an average activity parameter over all cell lines for the tested compound. For the MG_MID calculation, insensitive cell lines were included with the highest concentration tested.
(§2) Primary anticancer assay was performed on a panel of approximately sixty human tumor cell lines derived from nine neoplastic diseases, in accordance with the protocol of the Drug Evaluation Branch, National Cancer Institute, Bethesda. Tested compounds were added to the culture at a single concentration (10^−5 M) and the cultures were incubated for 48 h. End point determinations were made with a protein binding dye, sulforhodamine B (SRB). […] The percentage growth was evaluated spectrophotometrically versus controls not treated with test agents.
(§3) Dose–response parameters (GI50, TGI, LC50) were calculated for each compound. […] The drug concentration resulting in total growth inhibition (TGI) was calculated from Ti = Tz. The LC50 (concentration of drug resulting in a 50% reduction in the measured protein at the end of the drug treatment as compared to that at the beginning) indicating a net loss of cells following treatment was calculated from [(Ti − Tz)/Tz] × 100 = −50 (2). Values were calculated for each of these parameters if the level of activity was reached; however, if the effect was not reached or was excessive, the value for that parameter was expressed as more or less than the maximum or minimum concentration tested.

NCI-H23 = NCI-H23 (Non-Small Cell Lung Cancer), 48 h, SRB
K-562 = K-562 (Leukemia), 48 h, SRB
786-0 = 786-0 (Renal Cancer), 48 h, SRB
HCT-116 = HCT-116 (Colon Cancer), 48 h, SRB
NCI-322M = assay: NCI DTP 60 cell line screen, SRB; settings: 48 h
Ovarian Cancer subpanel = assay: cells
Procedure: as §1
(§4) The selectivity index (SI) obtained by dividing the full panel MG-MID (mM) of the tested compound by their individual subpanel MG-MID (mM) was considered as a measure of selectivity of anticancer activity (Table 3).
as §2, §3

Prostate Cancer subpanel = assay: cells
Procedure: as §1, §4, §2, §3

Breast Cancer subpanel = assay: cells
Procedure: as §1, §4, §2, §3

Melanoma subpanel = assay: cells
Procedure: as §1, §4, §2, §3

[1] = test system: Non-Small Cell Lung Cancer subpanel; assay: cells
Procedure: as §1, §4, §2, §3

CNS Cancer subpanel = assay: cells
Procedure: as §1, §4, §2, §3

Leukemia subpanel = assay: cells
Procedure: as §1, §4, §2, §3

Renal Cancer subpanel = assay: cells
Procedure: as §1, §4, §2, §3

Colon Cancer subpanel = assay: cells
Procedure: as §1, §4, §2, §3

HCT-15 = assay: NCI DTP 60 cell line screen, SRB
SK-OV-3 = assay: NCI DTP 60 cell line screen, SRB
M14 = assay: NCI DTP 60 cell line screen, SRB
LOX IMVI = assay: cells; settings: Homo sapiens, 48 h
A549/ATCC = A549/ATCC (Non-Small Cell Lung Cancer), 48 h, SRB
[2] = Homo sapiens, read-out: MG_MID, GI50
[3] = Homo sapiens, read-out: MG_MID, LC50
[4] = full panel MG_MID / Ovarian Cancer subpanel MG_MID
[5] = full panel MG_MID / Prostate Cancer subpanel MG_MID
[6] = full panel MG_MID / Breast Cancer subpanel MG_MID
[7] = full panel MG_MID / Melanoma subpanel MG_MID
[8] = full panel MG_MID / Non-Small Cell Lung Cancer subpanel MG_MID
[9] = full panel MG_MID / CNS Cancer subpanel MG_MID
[10] = full panel MG_MID / Leukemia subpanel MG_MID
[11] = full panel MG_MID / Renal Cancer subpanel MG_MID
[12] = full panel MG_MID / Colon Cancer subpanel MG_MID

O=C1/C(=C/C(Cl)=C/c2ccc([N+](=O)[O-])cc2)SC(=S)N1/N=C\C(Cl)=C\c1ccc([N+](=O)[O-])cc1 [Compound 2c, 5-[(Z,2Z)-2-Chloro-3-(4-nitrophenyl)-2-propenylidene]-3-[(Z,2Z)-2-chloro-3-(4-nitrophenyl)-2-propenylideneamino]-2-thioxo-4-thiazolidinone]
GI50 (60 tumor cell lines; Homo sapiens, read-out: 60 lines MG_MID, GI50): 18 µM | CC50 (60 tumor cell lines; Homo sapiens, read-out: 60 lines MG_MID, LC50): 81.7 µM | 60 lines MG_MID, TGI (60 tumor cell lines; mean over all cell lines): 43.1 µM | TGI (NCI-H23): 31.6 µM | TGI (K-562): 25.5 µM | TGI (786-0): 30.7 µM | TGI (HCT-116): 6.51 µM | GI50 (NCI-322M; Homo sapiens, NCI-322M): 87.6 µM | CC50 (NCI-322M; Homo sapiens, NCI-322M, read-out: LC50): > 100 µM | TGI (NCI-322M; NCI-322M (Non-Small Cell Lung Cancer), SRB): > 100 µM | GI50 (Ovarian Cancer subpanel; [2]): 18.2 µM | CC50 (Ovarian Cancer subpanel; [3]): 59 µM | MG_MID, TGI (Ovarian Cancer subpanel; Ovarian Cancer panel mean): 36.2 µM | SI (selectivity index), GI50 (Ovarian Cancer subpanel; [4]): 0.99 | SI (selectivity index), LC50 (Ovarian Cancer subpanel; [4]): 1.38 | SI (selectivity index), TGI (Ovarian Cancer subpanel; [4]): 1.19 | GI50 (Prostate Cancer subpanel; [2]): 14.9 µM | SI (selectivity index), GI50 (Prostate Cancer subpanel; [5]): 1.21 | SI (selectivity index), LC50 (Prostate Cancer subpanel; [5]): 1.09 | SI (selectivity index), TGI (Prostate Cancer subpanel; [5]): 0.95 | MG_MID, TGI (Breast Cancer subpanel; Breast Cancer panel mean): 51.3 µM | GI50 (Breast Cancer subpanel; [2]): 17.5 µM | CC50 (Breast Cancer subpanel; [3]): 90.2 µM | SI (selectivity index), GI50 (Breast Cancer subpanel; [6]): 1.03 | SI (selectivity index), LC50 (Breast Cancer subpanel; [6]): 0.91 | SI (selectivity index), TGI (Breast Cancer subpanel; [6]): 0.84 | GI50 (Melanoma subpanel; [2]): 17.7 µM | CC50 (Melanoma subpanel; [3]): 74.3 µM | MG_MID, TGI (Melanoma subpanel; Melanoma panel mean): 38.0 µM | SI (selectivity index), GI50 (Melanoma subpanel; [7]): 1.02 | SI (selectivity index), LC50 (Melanoma subpanel; [7]): 1.10 | SI (selectivity index), TGI (Melanoma subpanel; [7]): 1.13 | GI50 [1, 2]: 25.9 µM | CC50 [1, 3]: 83 µM | MG_MID, TGI ([1]; Non-Small Cell Lung Cancer panel mean): 44.8 µM | SI (selectivity index), GI50 [1, 8]: 0.69 | SI (selectivity index), LC50 [1, 8]: 0.98 | SI (selectivity index), TGI [1, 8]: 0.96 | MG_MID, TGI (CNS Cancer subpanel; CNS Cancer panel mean): 52.1 µM | GI50 (CNS Cancer subpanel; [2]): 23.4 µM | CC50 (CNS Cancer subpanel; [3]): 88.6 µM | SI (selectivity index), GI50 (CNS Cancer subpanel; [9]): 0.77 | SI (selectivity index), LC50 (CNS Cancer subpanel; [9]): 0.92 | SI (selectivity index), TGI (CNS Cancer subpanel; [9]): 0.83 | GI50 (Leukemia subpanel; [2]): 3.83 µM | CC50 (Leukemia subpanel; [3]): 90 µM | MG_MID, TGI (Leukemia subpanel; Leukemia panel mean): 18.6 µM | SI (selectivity index), GI50 (Leukemia subpanel; [10]): 4.70 | SI (selectivity index), LC50 (Leukemia subpanel; [10]): 0.91 | SI (selectivity index), TGI (Leukemia subpanel; [10]): 2.32 | GI50 (Renal Cancer subpanel; [2]): 16.9 µM | CC50 (Renal Cancer subpanel; [3]): 80.1 µM | MG_MID, TGI (Renal Cancer subpanel; Renal Cancer panel mean): 43.3 µM | SI (selectivity index), GI50 (Renal Cancer subpanel; [11]): 1.07 | SI (selectivity index), LC50 (Renal Cancer subpanel; [11]): 1.02 | SI (selectivity index), TGI (Renal Cancer subpanel; [11]): 1.00 | MG_MID, TGI (Colon Cancer subpanel; Colon Cancer panel mean): 59.7 µM | GI50 (Colon Cancer subpanel; [2]): 20.7 µM | CC50 (Colon Cancer subpanel; [3]): 77.8 µM | SI (selectivity index), GI50 (Colon Cancer subpanel; [12]): 0.87 | SI (selectivity index), LC50 (Colon Cancer subpanel; [12]): 1.05 | SI (selectivity index), TGI (Colon Cancer subpanel; [12]): 0.72 | TGI (HCT-15; HCT-15 (Colon Cancer), 48 h, SRB): 33.0 µM | GI50 (HCT-15; Homo sapiens, HCT-15, 48 h): 16.6 µM | CC50 (HCT-15; Homo sapiens, HCT-15, 48 h, read-out: LC50): 65.7 µM | GI50 (SK-OV-3; Homo sapiens, SK-OV-3, 48 h): 59.6 µM | CC50 (SK-OV-3; Homo sapiens, SK-OV-3, 48 h, read-out: LC50): > 100 µM | TGI (SK-OV-3; SK-OV-3 (Ovarian Cancer), 48 h, SRB): > 100 µM | GI50 (M14; Homo sapiens, M14, 48 h): 16.2 µM | CC50 (M14; Homo sapiens, M14, 48 h, read-out: LC50): 78.5 µM | TGI (M14; M14 (Melanoma), 48 h, SRB): 35.7 µM | GI50 (LOX IMVI): 13 µM | CC50 (LOX IMVI; read-out: LC50): 63.8 µM | TGI (A549/ATCC): 42.6 µM
